Read-outs that look alike come from different tables or passages of the source. Bridge positions count the residues as written; N and C are the ends. Peptide text beside a SMILES is read from it.
Legend:
[1] = tested on: LFA-1/ICAM-1 mediated JY cell aggregation; type: cell-based; details: for Percent Inhibition: (1 − (Observed/Max) × 100); for Percent Inhibition / Percent JY Aggregation: (SD) in parentheses; for Inhibition of LFA-1/ICAM-1 mediated JY cell aggregation compared to SEQ ID NO: 1 (in words): substituted derivatives of the consensus peptide
Description: LFA-1 dependent cell aggregation has been previously studied using an aggregation assay it with a variety of leukocyte subclasses and cell lines (Larson et al., 1990; Wang et al., 1988; Larson et al., 1997). JY cells were obtained form American Type Tissue Culture Collection and were maintained in RPMI 1640 supplemented with 10% FBS at 37° C. in 5% CO2. Aggregation of cells was measured in a homotypic aggregation assay using ICAM-1 as a stimuli. JY cells were washed twice with serum free medium and resuspended at a concentration of 4×10^5 is cells/ml. Cells were preincubated with the desired concentration of peptide for 15 min at room temperature. In a final volume of 100 μl, 50 μl of cells and peptide were seeded in 96 well flat bottomed microtiter plates. Cells were allowed to aggregate at 37° C. in humidified air with 5% CO2. Cells were visualized and counted by inverted phase contrast microscopy at the time indicated. Within each well of aggregates as well as the total number of free (single) cells were counted. percent aggregation was determined by the following equation:
Percent aggregation=100×(1−number of free cells/total number of cells)
The consensus peptide (SEQ ID NO: 1) and the randomized sequence CLMIRMLRC (SEQ ID NO: 33), cyclizied in the disulfide-linked form, were synthesized by Biopeptide (San Diego, Calif.) and tested in a screening assay for the ability to inhibit aggregation of the cell line JY, which aggregates in an LFA-1/CAM-1 dependent manner. Aggregation measurements are relatively rapid and quantifiable. Furthermore, small volumes are used minimizing peptide consumption. Finally, cell aggregation in vitro depends on a multivalent LFA-1/ICAM-1 interaction. A peptide that is identified as being able to block cell aggregation in vitro is, therefore, likely to have affinity and off-rate characteristics that would make it an effective in vivo inhibitor, since cell—cell interaction in vivo also involves multivalent LFA-1/ICAM-1 interaction. Using this assay, the consensus peptide sequence has an IC50 of 500 μM (FIG. 1).
Peptides are initially tested for their ability to block LFA-1/ICAM dependent aggregation of the cell line JY (Wang et al., 1988; Larson et al., 1997). Peptides are preferably tested over a range of concentrations ([…], for example) and the concentration leading to half maximal inhibition of aggregation (IC50) is determined for all the peptide sequences.

[2] = Solubility of peptides in aqueous solution; type: physicochemical
Source text: An alternative derivative peptide strategy was undertaken in which the consensus sequence peptide was subjected to an alanine-screening procedure as described by Cunningham and Wells, 1989. Peptides cyclizied in the disulfide-linked form were synthesized by Biopeptide (San Diego, Calif.) wherein an alanine was substituted at each position in the hepatapeptide LLRMRSI of the consensus sequence SEQ ID NO: 1, and each peptide was examined in parallel for its ability to inhibit LFA-1/ICAM-1 mediated JY cell aggregation. Six of the seven peptides were soluble in aqueous solution. SEQ ID NO: 376, representing a substitution of the arginine in position 4 of SEQ ID NO: 1, was not soluble at […] and could not be tested. […] The randomized sequence CLRLSRIMC (SEQ ID NO: 56) was used as a control.

[3] = tested on: neutrophil binding to stimulated endothelial cells; assay: Firm attachment of neutrophils to stimulated endothelial cells in a parallel plate flow chamber; type: cell-based, human; details: for Percent Inhibition of firm attachment of neutrophils: (1 − (Observed/Maximum)) × 100; for Percent Inhibition of firm attachment of neutrophils / Firmly attached neutrophils, Cells/mm^2: (SD) in parentheses; for Neutrophil-binding to endothelium (in words): physiologic flow conditions; for Firmly attached neutrophils, Cells/mm^2: physiologic flow
Source text: An assay has been developed that provides an in vitro model of neutrophils or APL cells binding to activated endothelium. The binding of APL cells using a parallel plate flow chamber recapitulates events that occur in retinoic acid syndrome (Larson et al., 1997; Brown et al., 1999). A parallel plate flow chamber simulates the physiologic flow conditions in blood and adhesive interactions in post-capillary venules. Post-capillary venules are the physiologically relevant locations of leukemia cell-endothelial cell interaction and extravasation. […] Monolayers of endothelial cells are placed in the parallel plate flow chamber, and the leukemic cells are pumped through the chamber at physiologic flow rates. The interaction between the flowing leukemia cells and the endothelium are videotaped microscopically, and the number of rolling, firmly adhered and transmigrated leukemia cells is quantified by computer-assisted image analysis.
For investigating neutrophil binding, neutrophils are isolated from heparin anticoagulated venous blood of healthy adult donors by centrifugation on Ficoll-Hypaque density gradients as described by Simon et al. (1992). Isolated neutrophils are suspended at a concentration of 10^7/ml in Hanks' Balanced Salt Solution supplemented with 10 mmol/L HEPES, pH 7.4 and 0.2% human serum albumin (Armour Pharmaceutical, Kankakee, Ill.) and used within 2 hours of preparation. Neutrophils are kept on ice and resuspended in RPMi pre-warmed to 37° C. immediately before use.

[4] = Table 4, homologous amino acid substitutions
[5] = Table 3, alanine-substituted derivations

| Compound | Percent Inhibition ([1]; Table 4, JY cell aggregation) | Percent JY Aggregation [1, 4] | Inhibition of LFA-1/ICAM-1 mediated JY cell aggregation compared to SEQ ID NO: 1 (in words) [1] | Percent Inhibition ([1]; Table 3, JY cell aggregation) | Percent JY Aggregation [1, 5] | other results |
| --- | --- | --- | --- | --- | --- | --- |
| CILRMRSAC (OTHER INFORMATION: Description of Artificial Sequence:Synthetic) [SEQ ID NO: 43] | 92(9) Percent | 4(5) Percent | greater inhibition |  |  |  |
| CLLRARSIC (OTHER INFORMATION: Description of Artificial Sequence:Synthetic) [SEQ ID NO: 37] |  |  | Loss of inhibitory function | 5(14) Percent | 72(11) Percent |  |
| CLLRMRSVC (OTHER INFORMATION: Description of Artificial Sequence:Synthetic) [SEQ ID NO: 48] | 92(3) Percent | 4(1) Percent | greater inhibition |  |  |  |
| CVLRMRSAC (OTHER INFORMATION: Description of Artificial Sequence:Synthetic) [SEQ ID NO: 42] | 56(6) Percent | 24(3) Percent |  |  |  |  |
| CLLRMASIC (OTHER INFORMATION: Description of Artificial Sequence:Synthetic) [SEQ ID NO: 38] |  |  | Loss of inhibitory function | 11(12) Percent | 68(9) Percent |  |
| CC[C@H](C)[C@@H]1NC(=O)[C@H](CCCNC(=N)N)NC(=O)[C@H](CO)NC(=O)[C@H](CC(C)C)NC(=O)[C@H](CCCNC(=N)N)NC(=O)[C@H](CC(C)C)NC(=O)[C@@H](N)CSSC[C@@H](C(=O)O)NC(=O)[C@H](CCSC)NC1=O [SEQ ID NO: 56, CLRLSRIMC, reference compound] (H-CLRLSRIMC-OH; disulfide 1-9 (inferred)) |  |  |  |  |  | Aqueous solubility relative to randomized sequence SEQ ID NO: 33 [2]: greater aqueous solubility |
| CLLRMRSLC (OTHER INFORMATION: Description of Artificial Sequence:Synthetic) [SEQ ID NO: 47] | −12(13) Percent | 61(7) Percent |  |  |  |  |
| CLLRMRAIC (OTHER INFORMATION: Description of Artificial Sequence:Synthetic) [SEQ ID NO: 39] |  |  | no significant effect | 27(21) Percent | 56(16) Percent |  |
| CLVRMRSAC (OTHER INFORMATION: Description of Artificial Sequence:Synthetic) [SEQ ID NO: 41] | 0(1) Percent | 55(1) Percent |  |  |  |  |
| CC[C@H](C)[C@@H]1NC(=O)[C@H](CO)NC(=O)[C@H](CCCNC(=N)N)NC(=O)[C@H](CCSC)NC(=O)[C@H](CCCNC(=N)N)NC(=O)[C@H](CC(C)C)NC(=O)[C@H](CC(C)C)NC(=O)[C@@H](N)CSSC[C@@H](C(=O)O)NC1=O [SEQ ID NO: 1, CLLRMRSIC] (H-CLLRMRSIC-OH; disulfide 1-9) | 45(9) Percent | 30(5) Percent |  | 46(11) Percent | 41(8) Percent | Aggregation of JY cells (FIG. 1, in words) ([1]; titration of 100 μM to 1 mM): inhibited; Percent Inhibition of firm attachment of neutrophils [3]: 47(15) Percent; Neutrophil-binding to endothelium (in words) ([3]; parallel plate flow chamber): block; Firmly attached neutrophils, Cells/mm^2 [3]: 439(120) Cells/mm^2 |
| CALRMRSIC (OTHER INFORMATION: Description of Artificial Sequence:Synthetic) [SEQ ID NO: 34] |  |  | Loss of inhibitory function | 7(19) Percent | 71(15) Percent |  |
| CLARMRSIC (OTHER INFORMATION: Description of Artificial Sequence:Synthetic) [SEQ ID NO: 35] |  |  | Loss of inhibitory function | 9(22) Percent | 69(17) Percent |  |
| CLLRMKSAC (OTHER INFORMATION: Description of Artificial Sequence:Synthetic) [SEQ ID NO: 46] | 90(4) Percent | 6(2) Percent | greater inhibition |  |  | Percent Inhibition of firm attachment of neutrophils [3]: 66(0) Percent; Inhibition of attachment of neutrophils to activated endothelium compared to SEQ ID NO: 1 (in words) ([3]; parallel plate flow chamber): greater inhibition; Neutrophil-binding to endothelium (in words) ([3]; parallel plate flow chamber): block; Firmly attached neutrophils, Cells/mm^2 [3]: 283(0) Cells/mm^2 |
| CLLRMRSAC (OTHER INFORMATION: Description of Artificial Sequence:Synthetic) [SEQ ID NO: 40] |  |  | more potent antagonist | 61(17) Percent | 29(13) Percent |  |
| CLIRMRSAC (OTHER INFORMATION: Description of Artificial Sequence:Synthetic) [SEQ ID NO: 44] | 93(3) Percent | 4(2) Percent | greater inhibition |  |  |  |
| CLLKMRSAC (OTHER INFORMATION: Description of Artificial Sequence:Synthetic) [SEQ ID NO: 45] | 94(3) Percent | 3(2) Percent | greater inhibition |  |  |  |
| CLMIRMLRC (OTHER INFORMATION: Description of Artificial Sequence:Synthetic) [SEQ ID NO: 33, reference compound] |  |  |  |  |  | Aggregation of JY cells (FIG. 1, in words) ([1]; concentration of 1 mM): ineffective |
| CC[C@H](C)[C@@H]1NC(=O)[C@H](CO)NC(=O)[C@H](CCCNC(=N)N)NC(=O)[C@H](CCSC)NC(=O)[C@H](C)NC(=O)[C@H](CC(C)C)NC(=O)[C@H](CC(C)C)NC(=O)[C@@H](N)CSSC[C@@H](C(=O)O)NC1=O [SEQ ID NO: 36, CLLAMRSIC] (H-CLLAMRSIC-OH; disulfide 1-9) |  |  | Loss of inhibitory function |  |  | Solubility in aqueous solution ([2]; at 1 nm): Not Soluble |
